{
  "source": "patent US20140066434A1",
  "about": "“Methods and Compositions for Treating Parkinson's Disease” (ARIAD PHARMACEUTICALS, INC., priority 2011, published 2014)",
  "assay": "Phase 1 clinical trial, safety",
  "data": [
    {"smiles": "Cc1ccc(C(=O)Nc2ccc(CN3CCN(C)CC3)c(C(F)(F)F)c2)cc1C#Cc1cnc2cccnn12", "note": "[ponatinib, 3-(Imidazo[1,2-b]pyridazin-3-ylethynyl)-4-methyl-N-(4-((4-methylpiperazin-1-yl)methyl)-3-(trifluoromethyl)phenyl)benzamide]", "values": [
      {"measurement": "DLTs", "setting": "45 mg cohort", "value": "a reversible rash was seen with one patient"},
      {"measurement": "DLTs", "setting": "60 mg cohort", "value": "four patients developed reversible pancreatic related DLT (pancreatitis)"},
      {"measurement": "DLTs", "setting": "2 to 30 mg cohorts", "value": "No DLTs"},
      {"measurement": "drug-related adverse events of any grade: anemia", "setting": "phase 1, all cohorts", "value": 12, "unit": "%"},
      {"measurement": "drug-related adverse events of any grade: lipase increase", "setting": "phase 1, all cohorts", "value": 12, "unit": "%"},
      {"measurement": "drug-related adverse events of any grade: nausea", "setting": "phase 1, all cohorts", "value": 12, "unit": "%"},
      {"measurement": "drug-related adverse events of any grade: rash", "setting": "phase 1, all cohorts", "value": 12, "unit": "%"},
      {"measurement": "drug-related adverse events of any grade: thrombocytopenia", "setting": "phase 1, all cohorts", "value": 25, "unit": "%"},
      {"measurement": "maximum tolerated dose (MTD)", "setting": "phase 1, mono-hydrochloride salt", "value": 45, "unit": "mg"}
    ]}
  ]
}
